Assays:
[1] = aqueous media
[2] = system: Acinetobacter baumannii clinical isolates; experiment: Clinical isolates testing, A. baumannii; type: cell-based; conditions: 10:90
Description: (§1) Clinical isolates of P. aeruginosa and A. baumannii were inoculated from −80° C. stocks into 200 μL LB broth and grown with shaking at 200 rpm, 16 h, 37° C. in Nunc 96-well plates. The overnight cultures were subcultured (1:25 dilution) into 10:90 and grown with shaking at 200 rpm, 2 h, 37° C. Vehicle controls consisted of 4 μL of DMSO, 144 μL 10:90 and 2 μL of subculture. Sterile controls consisted of 4 μL of DMSO and 146 μL 10:90. […]. The final volume of each well was 150 μL and each checkerboard was repeated at least three times. Plates were incubated with shaking at 200 rpm, 16 h, 37° C. and OD600 was measured (Multiskan Go—Thermo Fisher Scientific). The results were plotted as percent of control (wells containing only DMSO) using Prism (GraphPad).
(§2) Clinical isolates were grown and tested as described in Example 1. Briefly, clinical isolates were inoculated from glycerol stocks stored at −80° C. into Nunc 96-well plates and grown overnight at 37° C., for 16 h with shaking in LB (200 rpm). Overnights were subcultured (1:25) into fresh 10:90 medium and grown for 2 h under the same growth conditions. Subcultures were diluted 1:75 in fresh 10:90. Compounds were diluted 1:75 to obtain the final concentration. DOXY and CLI were added at a final concentration of 1 μg/mL, CO was used at 2 μg/mL, TRO was used at 4 μg/mL, TS was used at 8.3 μg/mL, and DSX was used at 32 μg/mL. Vehicle and sterility controls were included. Plates were incubated overnight with the same conditions. The OD600 was read (Multiscan Go—Thermo Fisher Scientific), analyzed using Excel, and the data plotted using Prism (GraphPad).
(§3) Culture conditions, checkerboard assays using P. aeruginosa PA14 and dose-response assays were performed as described in Example 1. In addition to TS, other thiopeptides tested were siomycin A (SM), thiocillin I (TC), micrococcin P1 (MC), nosiheptide (NH), berninamycin A (BER), and geninthiocin A (GEN). For dose response assays of the combinations conducted in 10:90, DSX concentration was constant at 64 μg/mL.

[3] = system: P. aeruginosa clinical isolates; experiment: Clinical isolates testing, P. aeruginosa; type: cell-based, Pseudomonas aeruginosa
Description: as §1, §2, §3

[4] = system: P. aeruginosa PA14; experiment: Dose response and checkerboard assays against PA14; type: cell-based, Pseudomonas aeruginosa; conditions: PA14; for interaction with DSX: 2D checkerboard; for effect of 100 μM Fe^3+ on inhibitory activity: VAN + compound checkerboards; for synergy with TS: checkerboard, IC50 isobolograms, 10:90; for relative potency of synergy with TS: checkerboards, isobolograms and CI values
Description: (§4) Checkerboard assays were set-up using Nunc 96-well plates in an 8-well by 8-well format. Two columns were allocated for vehicle controls and two columns for sterility controls. Vehicle controls contained 2 μL DMSO plus 2 μL DFP solvent for checkerboards with TS and DFP or 4 μL DMSO for TS and DSX, in 146 μL of 10:90 medium or 10% serum inoculated with PA14 or PAO1-KP as described in Growth Curves. Sterile controls contained the same components in 10:90 medium or 10% serum, without cells. Serial dilutions of TS—with 17 μg/mL being the highest final concentration—were added along the y axis of the checkerboard (increasing concentration from bottom to top) whereas serial dilutions of DFP or DSX—with 512 μg/mL being the highest final concentration—were added along the x axis (increasing concentration from left to right). The final volume of each well was 150 μL and each checkerboard was repeated at least three times. Plates were incubated and the final OD600 determined as detailed above.
Culture conditions, growth assays, dose response and checkerboard assays using P. aeruginosa PA14 were performed as described in Example 1. Briefly, overnight cultures were grown in LB for 16 h, 37° C., 200 rpm then subcultured (1:500 dilution) into 10:90 for 6 h. Subcultures were standardized to OD600 of 0.10 and diluted 1:500 in fresh 10:90 before use. For the dose response assay, serial dilutions of compounds were added at 75 times the final concentration and diluted with 10:90 with cells to reach the desired final concentration. This was done in triplicate for technical replicates. Vehicle and sterile controls were included. The checkerboard assay was done similarly to the dose response assay but in an 8×8 format in a 96-well Nunc plate, with concentration of one drug increasing along the y-axis and the other along the x-axis. Sterility and vehicle controls were included with two columns allocated for each control. At least three biological replicates were repeated for the dose response and checkerboard assays.

[5] = Chrome azurol S (CAS) plate assay; type: physicochemical; conditions: 10 μL of 2 mg/mL; room temperature 1 h
[6] = system: P. aeruginosa PA14; experiment: Checkerboards pinned to LB agar (bactericidal activity); type: cell-based, Pseudomonas aeruginosa; conditions: overnight 37° C.
Description: Checkerboards were pinned to LB agar plates using a sterile 96 pin tool. Plates were incubated overnight at 37° C. Independent experiments were conducted 3 times and a representative plate is shown.

[7] = Qualitative assay for antibiotic-Fe3+ coloured complexes; type: physicochemical; conditions: stock antibiotic + FeCl3 final 10 μM; room temperature 1 h
Description: […]. Binding of iron by a compound causes spectral shifts that can detected visually. Five μL of stock concentration antibiotic was added to 5 μL of FeCl3 to a final FeCl3 concentration of 10 μM and incubated at room temperature for one hour. Negative controls without iron are indicated by a negative sign and droplets with FeCl3 are indicated with a positive sign; vehicle controls with Milli-Q H2O and DMSO were included.
Compounds were arrayed in Nunc 96 microwell plates. Vehicle controls contained Milli-Q H2O with 1:75 dilution of each compound at a final concentration of […]. The experimental set-up contained the same components as the vehicle control, with the addition of […] FeCl3. The final volume in each well was 150 μL. The plate was incubated at room temperature for one hour and absorption spectra from 300 nm to 700 nm was read in 2 nm increments (Multiskan Go—Thermo Fisher Scientific). […]

[8] = system: P. aeruginosa PAO1; experiment: Checkerboard assays of TS with DFP, DSX or 10% serum; type: cell-based, Pseudomonas aeruginosa; conditions: 10:90
Description: Human serum (Corning) and mouse serum (Equitech-Bio) were stored at −20° C. Sera were aliquoted into 5-ml culture tubes by thawing once at 37° C. for 30 min with occasional gentle mixing. Culture tubes were frozen at −20° C. until use. To make 10% serum solutions, serum was thawed for 10 min at 37° C. and then heat inactivated at 57° C. for 30 min. Two milliliters of heat-inactivated serum were added to 18 ml of 10:90 medium and gently mixed. This 10% serum solution was used for checkerboard assays.
as §4

[9] = UV-Vis absorption spectra assay for iron chelation; type: physicochemical; conditions: 300 μM compound and FeCl3; 300-700 nm; 1 h
Description: Equimolar concentrations of compound and FeCl3 were added in deionized H2O to a final concentration of 300 μM and a spectrum of wavelengths from 300 nm to 700 nm read after 1 h incubation at room temperature. The black dashed line is the spectrum of the compound in the absence of iron. The black solid line is the spectrum after the addition of iron. […] Chloramphenicol and ampicillin were used as negative controls. Each assay was performed at least 3 times and averaged values are shown.
Compounds were arrayed in Nunc 96 microwell plates. Vehicle controls contained Milli-Q H2O with 1:75 dilution of each compound at a final concentration of […]. The experimental set-up contained the same components as the vehicle control, with the addition of […] FeCl3. The final volume in each well was 150 μL. The plate was incubated at room temperature for one hour and absorption spectra from 300 nm to 700 nm was read in 2 nm increments (Multiskan Go—Thermo Fisher Scientific).

[10] = Pseudomonas aeruginosa, concentration used in clinical isolate testing, read-out: ⅛^th the MIC of PA14

Row | SMILES | concentrations at which the compound precipitated [1] | susceptibility of A. baumannii strain C0286 [2] | growth of C0379 with CLI at 8 μg/mL ([3]; TS 8.3 and DSX 32 μg/mL where combined) | interaction with DSX [4] | one-eighth of MIC against PA14 (test concentration) [4, 10] | effect of 100 μM Fe^3+ on inhibitory activity [4] | synergy with TS [4] | relative potency of synergy with TS [4] | decolourization of CAS agar (relative affinity for iron) [5] | mode of activity of compound alone [6] | colour change upon addition of FeCl3 [7] | effect of chelator on TS activity ([8]; checkerboard with TS) | activity of chelator on its own against P. aeruginosa ([8]; checkerboard, up to 512 μg/ml) | absorption spectrum after addition of FeCl3 [9] | susceptibility of C0379 compared to PA14 [3] | MIC [4, 10]
1 | Oc1c(I)cc(Cl)c2cccnc12 [CLI, Clioquinol] | above 8 μg/mL | susceptible | did not reduce growth below MIC | antagonism | 1 µg/mL | abrogated | synergized | most potent synergy | Decolourization was not observed | bacteriostatic | – | – | – | – | – | –
2 | Cc1c(O)c(=O)ccn1C [DFP, deferiprone] | – | – | – | – | – | – | – | – | – | – | dark red/violet | potentiated TS activity | neither chelator had activity | shifted | – | –
3 | O=c1cccccc1O [TRO, Tropolone] | – | – | – | indifferent | – | abrogated | synergized | greater synergy | greatest decolourization | bacteriostatic | – | – | – | showed shifts in their absorption spectra | less susceptible | 4 µg/mL

— patent US20220168384A1, “Anti-Bacterial Combination Therapy” (McMaster University, priority 2019, published 2022)
